20 molecules from PubChem BioAssay AID1963966 (Molecular Pharmacology Branch, DTP, NCI, 2024) can be followed below.

For this test, the system named is 935938-334-R-J1-PDC spheroids with HUVEC/MSC, viability. Put plainly: Anticancer human tumor 935938-334-R-J1-PDC patient-derived small intestine adenocarcinoma cell line growth inhibition [PI3K]. The settings on record: for viability, T/C: stronger effect = lower value. From the text:
Combinatorial screen of targeted agents with the PI3K inhibitors inavolisib, alpelisib, duvelisib, and copanlisib in multi-cell type tumor spheroids
A high-throughput screen of multi-cell type tumor spheroids was designed to identify active combinations of targeted small molecules and PI3K pathway inhibitors. Complex spheroids include a stromal component modeled by human endothelial cells (HUVEC) and fibroblasts modeled by human mesenchymal stem cells (MSCs). The concentration ranges selected for each drug and investigational agent were based upon clinically achievable concentrations if the clinical Cmax of the agent was known.
Compounds. The drugs and investigational agents: inavolisib (NSC800729), alpelisib (NSC765974), duvelisib (NSC772469), copanlisib (NSC816437), ipatasertib (NSC767898), afuresertib (NSC778305), talazoparib (NSC767125), sapanisertib (NSC764658), selumetinib (NSC741078), tovorafenib (DAY101, NSC766906), vemurafenib (NSC761431), ravoxertinib (NSC781343), sotorasib (NSC818433), MRTX1133 (NSC 836407), abemaciclib (NSC 768073), palbociclib (NSC758247), venetoclax (NSC 766270), SY5609 (NSC837396), enzalutamide (NSC755605), and darolutamide (NSC825331), were obtained from the National Cancer Institute (NCI) Developmental Therapeutics Program Chemical Repository. The FDA-approved anticancer drug set is available from the NCI Developmental Therapeutics Program. […] The stock solutions were prepared in dimethyl sulfoxide (DMSO, Sigma-Aldrich, St. Louis, MO, cat. D2650) at 800-fold the tested concentration and stored at -70 degrees C prior to their use. All drugs and investigational agents were tested over a range starting from a high concentration at or near the clinical Cmax and decreasing in half-log increments. If the clinical Cmax for an agent had not been determined, the highest concentration tested was 10 microM.
Cell Culture. All cells were maintained in an incubator at 37 degrees C and 5% CO2 with 95% humidity. The PDC lines were cultured according to standard operating procedures established by the NCI PDMR (https://pdmr.cancer.gov/sops/default.htm). All PDCs were thawed and cultured in Matrigel-coated flasks prepared with a working solution of 1X Ham's F-12 nutrient mix, without supplementation (Invitrogen, Waltham, MA, cat. 11765054), 100 U/mL penicillin-streptomycin (Invitrogen, cat. 15140122), and 2.5% Matrigel (Corning Inc., Corning, NY, cat. 354248) for the first three passages. The 354836-022-R-J1-PDC, 475296-252-R-J1-PDC, and 997726-040-R-J2-PDC lines were cultured in 6A media, which includes advanced DMEM/F-12 (Thermo Fisher Scientific, cat. 12634028), 10 mM HEPES (Thermo Fisher Scientific, cat. 15630080), 1X GlutaMAX supplement (Thermo Fisher Scientific, cat. 35050061), 0.1 mg/mL primocin (InvivoGen, San Diego, CA, cat. ant-pm-2), 10% defined fetal bovine serum, heat inactivated (HyClone Laboratories Inc., Logan, UT, cat. SH30070.03HI), 50% L-WRN conditioned media (ATCC, cat. CRL-3276), 1.25 mM N-Acetyl-L-cysteine (Sigma-Aldrich, cat. A9165), 10 mM nicotinamide (Sigma-Aldrich, cat. N0636), 1X B-27 supplement (Thermo Fisher Scientific, cat. 17504044), 1X N-2 supplement (Thermo Fisher Scientific, cat. 17502048), and 10 microM Y-27632 dihydrochloride (Tocris Bioscience, Bristol, United Kingdom, cat. 1254). The 624824-186-R-J2-PDC line was cultured in 6C/Colon 1B media, which includes all 6A media components plus 50 ng/mL human EGF recombinant protein (Thermo Fisher Scientific, cat. PHG0311). […]

Setting [1] is: compound alone, run of 04/25/2023.

Where “and” joins values, the source holds several entries; their conditions need not be identical. Identical values can stand only once.
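Also: compound exposure lasted seven days before viability was read.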
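For viability, T/C in this document: percent of vehicle DMSO treated spheroid viability so 100% = untreated.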

As for `C#Cc1c(F)ccc2cc(O)cc(-c3ncc4c(N5CC6CCC(C5)N6)nc(OCC56CCCN5CC(F)C6)nc4c3F)c12` (stereo not given), the viability, T/C by setting is: (compound 3.16 µM) 52.5% [middle of 4 runs]; (compound 10 µM) 43.6% [middle of 4 runs]. Moreover, the IC50 (curve of compound) was 4.79 µM [middle of 4 runs].

For the molecule `C=CC(=O)N1CCN(c2nc(=O)n(-c3c(C)ccnc3C(C)C)c3nc(-c4c(O)cccc4F)c(F)cc23)C(C)C1` (stereo not given), the viability, T/C runs as follows: (compound 0.1 µM) 95.8% [middle of 4 runs]; (compound 1 µM) 111% [middle of 4 runs]; (compound 10 µM) 92.7% [middle of 4 runs]. Where the note is “curve of compound”, the IC50 was above 10 µM.

In the case of `CC(=O)c1c(C)c2cnc(Nc3ccc(N4CCNCC4)cn3)nc2n(C2CCCC2)c1=O`, the viability, T/C was 93.6% [middle of 4 runs] (compound 0.001 µM), 89.5% [middle of 4 runs] (compound 0.00316 µM), 87.7% [middle of 4 runs] (compound 0.01 µM) and 92.3% [middle of 4 runs] (compound 0.0316 µM). The half-maximal inhibitory concentration (IC50) (curve of compound) was > 0.1 µM and 0.0566 µM.

As for `CC(C)NCC(C(=O)N1CCN(c2ncnc3c2C(C)CC3O)CC1)c1ccc(Cl)cc1` (stereo not given), the viability, T/C is, setting by setting: (compound 0.1 µM) 85.6% [middle of 4 runs]; (compound 0.316 µM) 86.1% [middle of 4 runs]; (compound 1 µM) 74.3% [middle of 4 runs]. In addition, the IC50 (curve of compound) is > 10 µM and 1.87 µM and 5.86 µM.

With `CC(C)n1nc(-c2ccc3oc(N)nc3c2)c2c(N)ncnc21`, the viability, T/C (compound 0.000316 µM) was 94.6% [middle of 4 runs]; the viability, T/C (compound 0.001 µM) was 105% [middle of 4 runs]; the viability, T/C (compound 0.00316 µM) was 106% [middle of 4 runs]; the viability, T/C (compound 0.0316 µM) is 79.1% [middle of 4 runs]; the viability, T/C (compound 0.1 µM) is 52.8% [middle of 4 runs]. Also, the IC50 (curve of compound) was > 0.1 µM and 0.0905 µM.

Take `CC(Cn1ccc(-c2ccc(C#N)c(Cl)c2)n1)NC(=O)c1cc(C(C)O)[nH]n1` (stereo not given): the viability, T/C by setting is: (compound 0.0316 µM) 90.6% [middle of 4 runs]; (compound 0.316 µM) 101% [middle of 4 runs]. Moreover, the IC50 (curve of compound) was above 10 µM.

On to `CC(Nc1ccc2c(c1)OCCn1cc(N3C(=O)OCC3C(F)F)nc1-2)C(N)=O` (stereo not given), for which the viability, T/C (compound 0.0316 µM) is 91% [middle of 8 runs]. Besides, the IC50 (compound alone, run of 04/24/2023) is above 1 µM.

`CC(Nc1ncnc2nc[nH]c12)c1cc2cccc(Cl)c2c(=O)n1-c1ccccc1` (stereo not given): the viability, T/C is 99% [middle of 8 runs] (compound 0.0316 µM) and 80.4% [middle of 8 runs] (compound 10 µM). For the same molecule, the IC50 under setting [1] is above 10 µM.

On to `CC1(C)CCC(CN2CCN(c3ccc(C(=O)NS(=O)(=O)c4ccc(NCC5CCOCC5)c([N+](=O)[O-])c4)c(Oc4cnc5[nH]ccc5c4)c3)CC2)=C(c2ccc(Cl)cc2)C1`, for which the viability, T/C is 98.9% [middle of 4 runs] (compound 0.0316 µM), 88.2% [middle of 4 runs] (compound 0.1 µM) and 93.3% [middle of 4 runs] (compound 3.16 µM).

Regarding `CC1(C)CCC(Nc2ncc(C(F)(F)F)c(-c3c[nH]c4c(P(C)(C)=O)c(C#N)ccc34)n2)CN1` (stereo not given), the viability, T/C is, setting by setting: (compound 0.0316 µM) 43.3% [middle of 4 runs]; (compound 0.1 µM) 39.1% [middle of 4 runs]; (compound 0.316 µM) 34.6% [middle of 4 runs]; (compound 1 µM) 38.5% and 38.1% and 35.8% (2×); (compound 3.16 µM) 35.1% [middle of 4 runs]; (compound 10 µM) 7.76% [middle of 4 runs]. Further, under “curve of compound”, the IC50 was below 0.0316 µM.

For `CCCS(=O)(=O)Nc1ccc(F)c(C(=O)c2c[nH]c3ncc(-c4ccc(Cl)cc4)cc23)c1F`, the viability, T/C (compound 0.0316 µM) was 98.8% [middle of 4 runs]; the viability, T/C (compound 0.1 µM) is 111% [middle of 4 runs]; the viability, T/C (compound 0.316 µM) is 108% [middle of 4 runs]; the viability, T/C (compound 3.16 µM) is 110% [middle of 4 runs]; the viability, T/C (compound 10 µM) was 31% [middle of 4 runs]. The IC50 (curve of compound) was 7.38 µM [middle of 4 runs].

Regarding `CCN1CCN(Cc2ccc(Nc3ncc(F)c(-c4cc(F)c5nc(C)n(C(C)C)c5c4)n3)nc2)CC1`, the viability, T/C reads like this: (compound 0.01 µM) 89.4% [middle of 4 runs]; (compound 0.316 µM) 49.4% [middle of 4 runs]. Also, the IC50 (curve of compound) is 269 nM [middle of 4 runs].

With `CNC(=O)c1ccc(N2C(=S)N(c3ccc(C#N)c(C(F)(F)F)c3)C(=O)C2(C)C)cc1F`, the viability, T/C was 95.8% [middle of 4 runs] (compound 0.0316 µM); 97.6% [middle of 4 runs] (compound 0.1 µM); 96.2% [middle of 4 runs] (compound 0.316 µM); 101% [middle of 4 runs] (compound 3.16 µM); 97.4% [middle of 4 runs] (compound 10 µM). Further, the IC50 (curve of compound) was above 10 µM.

On to `COc1c(OCCCN2CCOCC2)ccc2c3n(c(=NC(=O)c4cnc(N)nc4)nc12)CCN3`, for which the viability, T/C was 87.7% [middle of 8 runs] (compound 0.00316 µM); 93.9% [middle of 8 runs] (compound 0.01 µM); 82.8% [middle of 8 runs] (compound 0.0316 µM); 52.5% [middle of 8 runs] (compound 0.1 µM); 38.6% [middle of 8 runs] (compound 0.316 µM); 39% [middle of 8 runs] (compound 1 µM). Moreover, under setting [1], the IC50 is 120 nM [middle of 8 runs].

As to `C[C@@H](NC(=O)c1ncnc(N)c1Cl)c1ncc(C(=O)Nc2cc(C(F)(F)F)c(Cl)cn2)s1`, the viability, T/C is 109% [middle of 4 runs] (compound 0.0316 µM) and 83.3% [middle of 4 runs] (compound 10 µM). Further, the IC50 (curve of compound) is above 10 µM.

Take `Cc1nc(NC(=O)N2CCCC2C(N)=O)sc1-c1ccnc(C(C)(C)C(F)(F)F)c1` (stereo not given): the viability, T/C (compound 1 µM) is 72.2% [middle of 8 runs] and the viability, T/C (compound 10 µM) was 48.2% [middle of 8 runs].

Regarding `Cn1cnc2c(F)c(Nc3ccc(Br)cc3Cl)c(C(=O)NOCCO)cc21`, the viability, T/C (compound 0.03 µM) was 59% [middle of 4 runs]; the viability, T/C (compound 0.0949 µM) was 48.3% [middle of 4 runs]; the viability, T/C (compound 0.3 µM) was 33.4% [middle of 4 runs]; the viability, T/C (compound 0.949 µM) was 27.6% [middle of 4 runs]; the viability, T/C (compound 3 µM) was 20.4% [middle of 4 runs]. The IC50 (curve of compound) is 55.5 nM [middle of 4 runs].

In the case of `Cn1ncc(Cl)c1-c1cc(C(=O)NC(CN)Cc2cccc(F)c2)sc1Cl` (stereo not given), the viability, T/C is, setting by setting: (compound 0.1 µM) 84.4% [middle of 4 runs]; (compound 0.316 µM) 71.1% [middle of 4 runs]; (compound 1 µM) 60.5% [middle of 4 runs]; (compound 3.16 µM) 49.1% [middle of 4 runs]. For the same molecule, the IC50 (curve of compound) was > 10 µM and 1.85 µM.

As to `Cn1nccc1Nc1nccc(-c2ccn(C(CO)c3ccc(Cl)c(F)c3)c(=O)c2)n1` (stereo not given), the viability, T/C is, setting by setting: (compound 0.0316 µM) 101% [middle of 4 runs]; (compound 0.316 µM) 68.3% [middle of 4 runs]; (compound 1 µM) 52.5% [middle of 4 runs]; (compound 3.16 µM) 43.4% [middle of 4 runs]; (compound 10 µM) 37% [middle of 4 runs]. Besides, the IC50 (curve of compound) is 1.06 µM [middle of 4 runs].

Turning to `Cn1ncnc1[C@H]1c2n[nH]c(=O)c3cc(F)cc(c23)N[C@@H]1c1ccc(F)cc1`, the viability, T/C (compound 0.000316 µM) was 91.7% [middle of 4 runs]; the viability, T/C (compound 0.001 µM) is 113% and 106% (2×) and 109%; the viability, T/C (compound 0.01 µM) is 101% [middle of 4 runs]; the viability, T/C (compound 0.0316 µM) was 94.7% [middle of 4 runs]; the viability, T/C (compound 0.1 µM) was 97.3% [middle of 4 runs]. Further, the IC50 (curve of compound) was above 0.1 µM.
